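Tested at 5 concentrations; 48 h exposure; 96-well plates; endpoints linearly interpolated, else capped at highest concentration. Here, GI50 denotes the concentration required for 50% inhibition of growth.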 Calls of active or inactive are those of the source. No stated cut-off is given here; in the data, active = GI50 up to about 1.1 µM and inactive = higher.
What was measured:
Test in all cases: NCI anticancer screen, dose series, 48 h
[1] = tested on: A549
[2] = tested on: MDA-MB-435
[3] = tested on: HCT-15
[4] = tested on: KM12
[5] = tested on: SNB-75
[6] = tested on: UACC-62
[7] = tested on: OVCAR-4
[8] = tested on: RXF 393
[9] = tested on: Malme-3M
[10] = tested on: OVCAR-8
[11] = tested on: U-251
[12] = tested on: M14
[13] = tested on: SR
[14] = tested on: K562
[15] = tested on: SW-620
[16] = tested on: SNB-19
[17] = tested on: UO-31
[18] = tested on: SK-MEL-5
[19] = tested on: SF-295
[20] = tested on: T47D

| Compound | GI50 [1] | GI50 [2] | GI50 [3] [µM] | GI50 [4] | GI50 [5] | GI50 [6] | GI50 [7] | GI50 [8] | GI50 [9] | GI50 [10] | GI50 [11] | GI50 [12] | GI50 [13] | GI50 [14] | GI50 [15] | GI50 [16] | GI50 [17] | GI50 [18] | GI50 [19] | GI50 [20] |
| --- | --- | --- | --- | --- | --- | --- | --- | --- | --- | --- | --- | --- | --- | --- | --- | --- | --- | --- | --- | --- |
| COc1ccc(NC2Oc3cc4c(cc3C(c3cc(OC)c(OC)c(OC)c3)C2C)OCO4)cc1 (stereo not drawn) | 0.685 µM (active) | 0.0991 µM (active) | 0.485 | 0.381 µM (active) | 0.301 µM (active) | 0.597 µM (active) | 0.566 µM (active) | 0.437 µM (active) | 0.365 µM (active) | 0.655 µM (active) | 0.379 µM (active) | 0.294 µM (active) | 0.352 µM (active) | 0.223 µM (active) | 0.428 µM (active) | 0.607 µM (active) | 0.891 µM (active) | 0.33 µM (active) | 0.268 µM (active) | – |
| CC(C)C1=C(Cc2ccccc2)C(=O)O/C1=C\c1cc(Cl)c(O)c(Cl)c1 | 21.6 µM (inactive) | 17.3 µM (inactive) | 18.2 | 16.7 µM (inactive) | 20.1 µM (inactive) | 16.9 µM (inactive) | 15.6 µM (inactive) | 16.4 µM (inactive) | 16.7 µM (inactive) | 20.5 µM (inactive) | 17.7 µM (inactive) | 19.1 µM (inactive) | 21.8 µM (inactive) | 17.4 µM (inactive) | 23.1 µM (inactive) | 17.1 µM (inactive) | 14.1 µM (inactive) | 18.7 µM (inactive) | 16 µM (inactive) | – |
| Cc1ccsc1/C=N/Nc1cc(C)c2cccc(C)c2n1 | > 100 µM (inactive) | > 100 µM (inactive) | – | > 100 µM (inactive) | > 100 µM (inactive) | > 100 µM (inactive) | > 100 µM (inactive) | – | – | > 100 µM (inactive) | > 100 µM (inactive) | > 100 µM (inactive) | – | – | > 100 µM (inactive) | > 100 µM (inactive) | – | – | 9.33 µM (inactive) | > 100 µM (inactive) |
| COC1(OC)CC(CO)(CNc2nc(N)nc(Cl)c2C=O)C1 | 59 µM (inactive) | 25.8 µM (inactive) | 26 | 49 µM (inactive) | 90.4 µM (inactive) | – | 25.2 µM (inactive) | 34.1 µM (inactive) | 81.7 µM (inactive) | 43 µM (inactive) | 34.6 µM (inactive) | – | 20.1 µM (inactive) | 5.74 µM (inactive) | 53.2 µM (inactive) | 43.8 µM (inactive) | 60.1 µM (inactive) | > 100 µM (inactive) | > 100 µM (inactive) | – |
| CC(C)=CCC[C@]1(C)CC[C@]2(C)C3CCC(=C(C)C)[C@@H](CCCO)[C@]3(C)CC[C@@]2(C)C1 (stereo partly drawn) | 52.6 µM (inactive) | > 100 µM (inactive) | 34 | 57.9 µM (inactive) | 0.0243 µM (active) | > 100 µM (inactive) | > 100 µM (inactive) | – | > 100 µM (inactive) | 30.5 µM (inactive) | 23.6 µM (inactive) | 30.3 µM (inactive) | – | – | 53.8 µM (inactive) | > 100 µM (inactive) | 16.9 µM (inactive) | > 100 µM (inactive) | 43.1 µM (inactive) | 4.92 µM (inactive) |
| CC(=O)OC12c3ccccc3C(c3ccccc31)C1C(=O)N(Nc3ccccc3)C(=O)C12 (stereo not drawn) | > 100 µM (inactive) | – | > 100 | > 100 µM (inactive) | 92.7 µM (inactive) | > 10 µM (inactive) | > 100 µM (inactive) | > 100 µM (inactive) | > 100 µM (inactive) | > 100 µM (inactive) | > 100 µM (inactive) | > 100 µM (inactive) | > 100 µM (inactive) | > 100 µM (inactive) | > 100 µM (inactive) | > 100 µM (inactive) | > 100 µM (inactive) | > 100 µM (inactive) | > 100 µM (inactive) | > 100 µM (inactive) |
| Clc1ccc(CCN[C@H]2CCCC[C@H]2N2CCCC2)cc1Cl | 26.4 µM (inactive) | 18.5 µM (inactive) | 9.59 | 17.2 µM (inactive) | – | 17.8 µM (inactive) | 21.5 µM (inactive) | – | 15.9 µM (inactive) | 26.3 µM (inactive) | 43.7 µM (inactive) | 15.3 µM (inactive) | 28.7 µM (inactive) | 24.2 µM (inactive) | 34 µM (inactive) | 25.9 µM (inactive) | 13.6 µM (inactive) | 14.6 µM (inactive) | 16 µM (inactive) | – |
| C=CCONC(=O)c1ccc(Cl)cc1 | > 100 µM (inactive) | – | > 100 | > 100 µM (inactive) | 84.1 µM (inactive) | > 100 µM (inactive) | > 100 µM (inactive) | > 100 µM (inactive) | > 100 µM (inactive) | > 100 µM (inactive) | > 100 µM (inactive) | > 100 µM (inactive) | > 100 µM (inactive) | > 100 µM (inactive) | > 100 µM (inactive) | > 100 µM (inactive) | > 100 µM (inactive) | > 100 µM (inactive) | > 100 µM (inactive) | – |
| CN(C)C(=S)/N=c1\sn(C)/c(=N\C(=S)N(C)C)n1C | 82.8 µM (inactive) | – | > 100 | 86.1 µM (inactive) | > 100 µM (inactive) | 32.2 µM (inactive) | > 100 µM (inactive) | > 100 µM (inactive) | 19.5 µM (inactive) | > 100 µM (inactive) | 85.3 µM (inactive) | > 100 µM (inactive) | > 100 µM (inactive) | 34.1 µM (inactive) | > 100 µM (inactive) | > 100 µM (inactive) | > 100 µM (inactive) | 29.1 µM (inactive) | > 100 µM (inactive) | – |
| c1c[nH]c(-c2ccc(-c3ccc[nH]3)c3nsnc23)c1 | > 47.5 µM (inactive) | > 48.1 µM (inactive) | 0.245 | 0.217 µM (active) | 2.65 µM (inactive) | > 47.5 µM (inactive) | 0.612 µM (active) | – | – | > 43.7 µM (inactive) | 42.1 µM (inactive) | > 46.9 µM (inactive) | – | > 26.8 µM (inactive) | > 52.4 µM (inactive) | > 67.6 µM (inactive) | > 48.1 µM (inactive) | > 42.9 µM (inactive) | > 58.1 µM (inactive) | 0.0336 µM (active) |
| O=C(CCN1CCCC1)c1ccc(Oc2ccc(F)cc2)cc1 | > 100 µM (inactive) | > 100 µM (inactive) | 41.3 | 29.9 µM (inactive) | 47.8 µM (inactive) | 54.2 µM (inactive) | > 100 µM (inactive) | 22.3 µM (inactive) | 27.8 µM (inactive) | > 100 µM (inactive) | > 100 µM (inactive) | 31 µM (inactive) | – | 42.4 µM (inactive) | 78.7 µM (inactive) | > 100 µM (inactive) | 50.9 µM (inactive) | 44.8 µM (inactive) | 90.2 µM (inactive) | – |
| O=C(O)CNc1ccc(Cl)c(Cl)c1 | 32.1 µM (inactive) | 26.3 µM (inactive) | 8.83 | 19.1 µM (inactive) | 26.6 µM (inactive) | 28.1 µM (inactive) | 31.6 µM (inactive) | 35.3 µM (inactive) | – | 29 µM (inactive) | 31.1 µM (inactive) | 27.4 µM (inactive) | – | 25.1 µM (inactive) | 23.9 µM (inactive) | 34.5 µM (inactive) | 24.9 µM (inactive) | 26.5 µM (inactive) | 24.6 µM (inactive) | 15.6 µM (inactive) |
| C=C(CCC=C(C)C)C1CC=C(C)CC1 (stereo not drawn) | 19.5 µM (inactive) | 18.2 µM (inactive) | 18.2 | 19 µM (inactive) | – | 36.9 µM (inactive) | – | 13.9 µM (inactive) | > 100 µM (inactive) | 36 µM (inactive) | 18 µM (inactive) | 62.4 µM (inactive) | – | – | 22.9 µM (inactive) | > 100 µM (inactive) | 16.4 µM (inactive) | 16.6 µM (inactive) | 19.9 µM (inactive) | 28.1 µM (inactive) |
| COc1cc2c(cc1OC)C13CCN4CC5=CCOC6CC(=O)N2C1C6C5CC43O (stereo not drawn) | > 100 µM (inactive) | > 100 µM (inactive) | > 100 | > 100 µM (inactive) | > 100 µM (inactive) | > 100 µM (inactive) | > 100 µM (inactive) | – | > 100 µM (inactive) | > 100 µM (inactive) | > 100 µM (inactive) | > 100 µM (inactive) | – | > 100 µM (inactive) | > 100 µM (inactive) | > 100 µM (inactive) | > 100 µM (inactive) | > 100 µM (inactive) | > 100 µM (inactive) | > 100 µM (inactive) |
| CS(=O)(=O)N(N(CCCl)S(=O)(=O)c1ccccc1)S(C)(=O)=O | > 100 µM (inactive) | – | > 100 | > 100 µM (inactive) | 50.8 µM (inactive) | > 100 µM (inactive) | > 100 µM (inactive) | > 100 µM (inactive) | > 100 µM (inactive) | > 100 µM (inactive) | 17.7 µM (inactive) | > 100 µM (inactive) | > 100 µM (inactive) | > 100 µM (inactive) | > 100 µM (inactive) | 67.9 µM (inactive) | 76.7 µM (inactive) | 52.7 µM (inactive) | 88.9 µM (inactive) | – |
| CCc1c2c(nc3ccc(O)cc13)-c1cc3c(c(=O)n1C2)COC(=O)[C@]3(O)CC [7-ETHYL-10-HYDROXYCAMPTOTHECIN] | 0.0525 µM (active) | – | 0.00711 | 0.0212 µM (active) | – | < 0.001 µM (active) | 0.00227 µM (active) | – | – | – | < 0.001 µM (active) | < 0.001 µM (active) | < 0.001 µM (active) | – | – | < 0.001 µM (active) | – | – | < 0.001 µM (active) | < 0.001 µM (active) |
